Common to all, as to assay type: cell-based, human
The subject of assay [1] is cellular reduced glutathione (GSH). The assay can be described thus: Cellular GSH level. Conditions: 24 h. On the procedure:
Fig. 4 Effect of glutamate transporter inhibition on cellular GSH levels. a Basal intracellular GSH levels were measured as described in Materials and Methods, and normalized to total protein in the samples. b-c Normalized basal GSH levels under control conditions, in HCT116 and LoVo parental and resistant cells after 24 h of treatment with 0.8 μM SN38 or 20 μM oxaliplatin, in absence or presence of DL-TBOA (350 μM) as shown. * p < 0.05 vs untreated control group (n = 5). One-way ANOVA followed by Dunnett post-test
Cells were seeded in 24-well plates (10^4 cells per well), treated the next day with chemotherapy and/or DL-TBOA and incubated for 24 h. Medium was removed and cells were washed twice with ice-cold PBS, which was removed and 500 μl ice-cold 1 % Sulfosalicylic acid was added per well. Cells were incubated on ice for at least 10 min. After centrifugation (1 min, 15,000 g), 10 μl lysate was used to determine total GSx content. To measure GSSG content, 130 μl sample was mixed with 55 μl 0.2 M Tris (pH 9) and 5 μl 2-Vinylpyridine. Tubes were vortexed carefully and incubated for at least 1 h at room temperature. 10 μl of this mix was mixed first with 90 μl of water in a 96-well plate and then with a reaction mix (0.1 M sodium phosphate buffer pH 7.5 containing 1 mM EDTA, 10 mM NADPH, 10 mM DTNB and 0.05 μl Glutathione reductase, 2U/μl). Measurements were taken every 30 s for 10 min in an ELISA plate reader (Thermo Scientific MultiScan FC) at 405 nm absorbance. GSH values were obtained by subtraction of GSSG values from GSx values.

The test system of a further assay is p21^WAF1/Cip (p21). As to the kind of experiment: p21 protein level by Western blotting. Conditions: for p21 protein level: 24 h, 0.8 μM SN38 or 20 μM oxaliplatin. As for the experimental part:
Cells were grown to a confluence of 60-80 % and treated with chemotherapy, siRNA- or plasmid transfection as indicated. Cells were washed once in PBS, lysed in lysis buffer (1 % SDS, 0.1 M Tris pH 7.5, and 1 mM Na3VO4), sonicated, and protein content determined (DC assay, BioRad). Lysates were mixed 2:1with NuPage LDS sample buffer (Invitrogen). SDS-PAGE was carried out in NOVEX chambers with NuPAGE 10 % Bis-Tris gels under reducing and denaturing conditions, using BenchMark protein ladder (Invitrogen), and 15 μg protein per lane. Proteins were transferred to PVDF membranes, which were Ponceau S stained, blocked for 1 h at 37 °C in 5 % nonfat dry milk in TBST (0.01 M Tris/HCl, 0.15 M NaCl, 0.1 % Tween 20, pH 7.4), incubated overnight at 4 °C with primary antibodies diluted in blocking buffer, washed in TBST, incubated with secondary antibodies for 1 h, washed in TBST, and developed using BCIP/NBT (KPL). Bands were scanned and quantified using UN-SCAN-IT (Silk Scientific).
Supplementary file 12885_2015_1405_MOESM3_ESM.tiff: Additional file 3: Figure S3. Effects of DL-TBOA on cell death and survival parameters after chemotherapy treatment of HCT116 cells. Parental and drug-resistant HCT116 cell lines seeded in 6-well dishes were exposed to SN38 (0.8 μM) or oxaliplatin (20 μM), alone or in combination with 350 μM DL-TBOA as indicated, for 24 h. Equal amounts of protein per lane were separated by SDS-PAGE and the protein levels of p21, and PARP-1 (full-length and cleaved, the latter indicated by arrowheads) were determined by Western blotting. Top: Representative Western blots, with p150 as loading control. Bottom: Densitometric quantifications based on 3 independent experiments per condition. Data are means with S.E.M. error bars of 3 independent experiments. *) p < 0.05, **) p < 0.01, ***) p < 0.001,****) p < 0.0001 compared to the control group without drug or TBOA treatment; #) p < 0.05 compared to controls without TBOA treatment. Two-way ANOVA with Tukey post-test.
In general terms: A western blot detects proteins with antibodies after separation by electrophoresis.

The subject of the next assay is parental LoVo cells. The assay can be described thus: MTT viability assay, parental LoVo cells. Conditions: 350 μM DL-TBOA, 48 h. As for the experimental part: Fig. 2 DL-TBOA augments SN38-induced death in SN38-resistant cells, but protects oxaliplatin-resistant cells from oxaliplatin-induced death. Parental and drug-resistant HCT116 and LoVo cell lines seeded in 96-well dishes were exposed to SN38 (0.1 or 0.8 μM) or oxaliplatin (0.8 or 20 μM), alone or in combination with 70 or 350 μM DL-TBOA as indicated, for 48 h. Viability was assessed by MTT assay. a-b Parental HCT116 cells, (c) SN38 resistant HCT116 cells, (d) Oxaliplatin-resistant HCT116 cells, (e-f) Parental LoVo cells, (g) SN38 resistant LoVo cells, (h) Oxaliplatin-resistant LoVo cells. Data are means with S.E.M. error bars of 3 independent experiments. *) p < 0.05, **) p < 0.01, ***) p < 0.001 compared to the control group without drug or TBOA treatment; #) p < 0.05 compared to controls without TBOA treatment. One-way ANOVA followed by Dunnett post-test
Cells were seeded at appropriate density (LoVo 10,000, and HCT116 5000 cells /100 μl) in growth medium in 96-well plates. Next day, cells were treated with inhibitors and/or chemotherapy in a total volume of 200 μl in growth medium and incubated for 48 h at 37 °C, 5 % CO2. […] Absorbance was measured in an ELISA plate reader (Thermo Scientific MultiScan FC) at 550 nm. Data were background subtracted and % viability relative to controls calculated.
(In general: Formazan colour is commonly taken as a measure of viable cells.)

The values below come from PMC4445981, “The glutamate transport inhibitor DL-Threo-β-Benzyloxyaspartic acid (DL-TBOA) differentially affects SN38- and oxaliplatin-induced death of drug-resistant colorectal cancer cells” (BMC Cancer, 2015).

The structures appear in SMILES notation.

Take `N[C@H](C(=O)O)[C@H](OCc1ccccc1)C(=O)O` (racemic) [TBOA, DL-Threo-β-Benzyloxyaspartic acid]: in assay [1] (350 μM DL-TBOA, HCT116 and LoVo parental and resistant cells), the “effect on cellular GSH levels” value is “no detectable effect”. Moreover, in the assay on p21^WAF1/Cip (p21) (DL-TBOA, HCT116 and LoVo cells), the “effect on cellular level of p21” value is given as “did not significantly alter”. Moreover, the “effect on loss of viability induced by 0.8 μM oxaliplatin” value with parental LoVo cells is on record as “essentially abolished the loss of viability”.
With `O=C(O)C(=O)O.[NH-][C@@H]1CCCC[C@H]1[NH-].[Pt+2]` [oxaliplatin], the “effect on cellular GSH levels” value in assay [1] (parental HCT116 cells, 0.8 μM SN38 or 20 μM oxaliplatin) was “slightly increased GSH levels”. The p21 protein level result is reported as “retained” in the assay with p21^WAF1/Cip (p21) (SN38-resistant HCT116 cells) and “markedly induced” in the assay with p21^WAF1/Cip (p21) (parental HCT116 cells).
